Laboratory results: patent US10123985B2, “Therapeutic strategies for treating mitochondrial disorders” (Whitehead Institute for Biomedical Research, priority 2015, dated 2018)
Entries after “also recorded” stand apart in the source; their conditions may differ.

Tests used:
Assay type in all cases: cell-based
[1] = tested on: 143B cells; experiment: Proliferation assay of wild-type 143B cells treated with respiration inhibitors; settings: for Proliferation of respiration-inhibited 143B cells with supplementation: rotenone, phenformin, antimycin, myxothiazol, azide or oligomycin plus the substance; for Proliferation of rotenone treated 143B cells: wide range of rotenone doses, 1 mM AKB or 20 mM aspartate, 4 days
Procedure: 143B, A172, H1299, HeLa, U87 and MEF cells were cultured in Dulbecco's Modified Eagle's Medium (DMEM) (Gibco) supplemented with 10% fetal bovine serum (FBS) and penicillin-streptomycin. FL5.12 cells were cultured in the same medium and supplemented with 5 μg/mL recombinant mouse IL-3 (R&D Systems). 143B cybrid cell lines (WT Cybrid and CytB) were cultured in DMEM with 10% FBS, penicillin-streptomycin, and 0.1 mg/mL uridine. All cells incubated at 37° C. with 5% CO2.
Adherent cell lines growing in log phase were trypsinized, counted, and plated onto 6 well dishes (Corning) in 2 mL complete DMEM and incubated overnight. Initial seeding density was 2E4 cells per well for 143B, A172, H1299, HeLa, 143B WT Cybrid, and MEFs and 3E4 cells for 143B CytB and U87 cells. The following day, one plate of cells was counted to determine the initial cell count at the time of treatment. Cells were washed 2 times with 2 mL phosphate buffered saline (PBS) and 4 mL media premixed with the indicated treatments was added. FL5.12 cells, a suspension cell line, were washed 2 times in PBS and added directly to media containing the indicated treatments and 5 μg/mL recombinant mouse IL-3. Proliferation rate assay media was DMEM without pyruvate containing 10% dialyzed FBS, penicillin-streptomycin, and 0.1 mg/mL uridine, unless otherwise noted. For these cell lines at these seeding densities it was determined that for 4 days the cells maintained logarithmic proliferation (data not shown), therefore final cell counts were measured 4 days after treatment. Cells were counted using Cellometer Auto T4 Plus Cell Counter (Nexcelom Bioscience). Proliferation rate was determined using the following formula: Proliferation Rate (Doublings per day)=(log2(Final cell count (day 5)/Initial cell count (day 1))/4 (days)

[2] = tested on: 143B WT cybrid and 143B CytB cells; experiment: Mitochondrial oxygen consumption (Seahorse XF24), cybrid cells; settings: presence or absence of the substance
Procedure: Oxygen consumption rates were determined on a Seahorse Bioscience Extracellular Flux Analyzer (XF24). Cells were plated in Seahorse Bioscience 24 well plates at 6E4 cells per well in 100 μL complete DMEM, allowed to attach for 1 hour, and 500 μl complete DMEM was added before overnight incubation. The following day cells were washed 2 times in assay media: DMEM without phenol red or pyruvate containing 0.5% dialyzed FBS and 0.1 mg/mL uridine at pH 7.4 and incubated in 500 μL of the same media for the assay. Oxygen consumption measurements were compared either, between basal measurements and following injection of the compound (AKB, rotenone, antimycin), or between wells cultured overnight in their treatment conditions (aspartate, oligomycin, FCCP). The latter conditions were used due to solubility constraints (aspartate) or kinetic constraints of the compound (oligomycin). These measurements were then subtracted from oxygen consumption measurements following addition of high dose rotenone and antimycin treatment (2 μM each) to determine the mitochondria specific oxygen consumption rate. Following measurements, the number of cells in the wells was counted, averaged for each treatment condition, and the mitochondrial oxygen consumption rates were normalized to 1E5 cells.

[3] = tested on: 143B CytB cells; experiment: Purine nucleotide extraction and LC-MS analysis
Procedure: 143B CytB cells were seeded at 400,000 cells/well in 6 well dishes overnight. The following day, cells were washed 2 times in PBS and media was changed to proliferation assay media with or without the indicated treatments. After 15 hours polar metabolites were extracted from cells using 250 μL of ice cold 80% methanol. After scraping the cells, 250 μL of chloroform was added before vortexing for 10 min at 4° C. and centrifugation for 10 min at 4° C. at 16,000 g, 40 μL of the top, water-methanol, layer was transferred into a LC-MS tube and samples were analyzed. A Dionex UltiMate 3000 ultra-high performance liquid chromatography system connected to a Q Exactive benchtop Orbitrap mass spectrometer, equipped with an Ion Max source and a HESI II probe (Thermo Fisher Scientific) was used to quantify metabolites. Samples were separated by chromatography by injecting 10 μL of sample on a SeQuant ZIC-pHILIC Polymeric column (2.1×150 mm 5 μM, EMD Millipore). Flow rate was set to 150 μL/min, temperatures were set to 25° C. for column compartment and 4° C. for autosampler sample tray. Mobile Phase A consisted of 20 mM ammonium carbonate, 0.1% ammonium hydroxide. Mobile Phase B was 100% acetonitrile. The mobile phase gradient (% B) was set in the following protocol: 0-20 min.: linear gradient from 80% to 20% B; 20-20.5 min.: linear gradient from 20% to 80% B; 20.5-28 min.: hold at 80% B. Mobile phase was introduced into the ionization source set to the following parameters: sheath gas=40, auxiliary gas=15, sweep gas=1, spray voltage=−3.1 kV, capillary temperature=275° C., S-lens RF level=40, probe temperature=350° C. Metabolites were monitored using full scan in negative mode in the range of 285-700 m/z, with the resolution set at 140,000, the AGC target at 106, and the maximum injection time at 250 msec. Relative quantitation of metabolites was performed with XCalibur QuanBrowser 2.2 (Thermo Fisher Scientific) using a 5 ppm mass tolerance and referencing an in-house retention time library of chemical standards.

[4] = tested on: 143B cells; experiment: Measurement of NAD+/NADH (NAD/NADH Glo) in 143B cells with respiration inhibitors; settings: 143B cells, ETC inhibitors plus AKB, 6 hours
Procedure: NAD^+/NADH measurements were done using a modified version of manufacturer instructions of NAD/NADH Glo Assay (Promega). Cells were plated and treated as for proliferation assays and cell extracts were taken 6 hours after treatment. For extraction, cells were quickly washed 3 times in ice cold PBS, extracted in 100 μL ice cold lysis buffer (1% Dodecyltrimethylammonium bromide (DTAB) in 0.2 N NaOH diluted 1:1 with PBS), and immediately frozen at −80° C. To measure NADH, 20 μL of sample was moved to PCR tubes and incubated at 75° C. for 30 min, where the basic conditions will selectively degrade NAD^+. To measure NAD^+, 20 μL of the samples was moved to PCR tubes containing 20 μL lysis buffer and 20 μL 0.4 N HCl and incubated at 60° C. for 15 min, where acidic conditions will degrade NADH. Following incubations, samples were allowed to equilibrate to room temperature and then quenched by neutralizing with 20 μL 0.25 M Tris in 0.2 N HCl (NADH) or 20 μL 0.5 M Tris base (NAD^+). Manufacturer instructions were followed thereafter to measure NAD^+/NADH.

[5] = cells without AKB supplementation compared to AKB replete cells

| SMILES | Proliferation of respiration-inhibited 143B cells with supplementation [1] | Proliferation of rotenone treated 143B cells [1] | Mitochondrial oxygen consumption rate [2] | IMP level ([3]; cells cultured without AKB compared to AKB replete cells) | AMP level [3, 5] | GMP level [3, 5] | AMP/IMP ratio ([3]; upon AKB withdrawal) | GMP/IMP ratio ([3]; upon AKB withdrawal) | Cellular NAD+/NADH ratio [4] | AMP level ([3]; 143B CytB cells with aspartate) | GMP level ([3]; 143B CytB cells with aspartate) | IMP level ([3]; 143B CytB cells with aspartate) |
| --- | --- | --- | --- | --- | --- | --- | --- | --- | --- | --- | --- | --- |
| CCC(=O)C(=O)O [AKB, α-ketobutyrate] | rescued proliferation, with proliferation rates comparable to that observed in untreated cells | restore proliferation in 143B cells over a wide range of rotenone doses | does not alter oxygen consumption | increased levels | decreased | decreased | dramatically decrease | dramatically decrease | restored NAD^+/NADH |  |  |  |
| N[C@@H](CC(=O)O)C(=O)O [aspartate] | Proliferation was restored in response to all ETC inhibitors | restore proliferation in 143B cells over a wide range of rotenone doses | neither increased mitochondrial oxygen consumption |  |  |  |  |  |  | restores AMP pools | not restored; also recorded: actually lower | relieves the accumulation of IMP |
